Laboratory results taken from US6451335B1, “Formulations and methods for providing prolonged local anesthesia” (Euro-Celtique S.A., priority 1998, dated 2002).
Where a name gives a salt, the structure may show the parent alone.

Legend:
[1] = test system: rat sciatic nerve; assay: Duration of anesthesia of bupivacaine microspheres (LAB) with co-injected additives, hotplate foot withdrawal; format: in vivo; conditions: LAB 150 mg/kg perineural
Method: In this example, a large number of pharmaceutical agents were tested for activity in augmenting the duration of local anesthetic activity. Bupivacaine-containing microspheres at about 75% loading, by weight, were injected perineurally into rat sciatic nerve at a dose of 150 mg/kg (weight microspheres/weight rat) to dose of approximately 50 mg/nerve. For the injections, needle placement adjacent to the target nerve was optimized by intermittent electrical e stimulation of the target nerve (via the injection needle) with low amplitude current to produce limb flexion. For the injections, the microspheres were suspended in a carrier vehicle suitable for injection. While any pharmaceutically acceptable carrier vehicle is acceptable, for these experiments the carrier vehicle was 1% sodium carboxymethylcellulose and 1% Tween 80 in water.
Compounds to be tested were co-injected with bupivacaine containing microspheres (i.e., mixed as additives into the carrier vehicle) in a range of concentrations. Results are expressed as percent increase in duration relative to non-augmented durations that were obtained in the same animal model.
The duration of anesthesia was measured by the hotplate foot withdrawal method described above in Example 10 and refers to the time necessary for the animal to recover from maximal nerve latency (12 sec) to a latency of 7 seconds, approximately 50% recovery. The results are tabulated in Table 3 below as percent of control.

[2] = test system: rat sciatic nerve; assay: as above; format: in vivo; conditions: read-out: Duration Anesthesia As Percent of Control
[3] = test system: rat sciatic nerve; assay: Rat sciatic nerve model, sensory testing (hotplate hindpaw withdrawal latency); format: in vivo; conditions: for duration of sensory block: augmenting agent with bupivacaine-loaded microspheres vs contralateral side with bupivacaine-loaded microspheres without the agent
Method: (§1) The duration of local anesthesia induced by the bupivacaine-loaded microspheres, prepared from PLGA 65:35, with and without the co-administration of an augmenting agent, is tested in a rat sciatic nerve model for localized local anesthesia. […] The latency test determines the time, in seconds, before a rat withdraws its hindpaw from a hotplate set to a safe but uncomfortable temperature (56° C.).
(§2) Selected rats are injected with a solution containing a suspension of bupivacaine-loaded microspheres plus co-administered augmenting agent on one side and injected with a control on the contralateral side so that each rat serves as its own control. Each injection is adjacent to the sciatic nerve. The controls are bupivacaine-loaded microspheres without co-administered augmenting agent and microspheres without any bupivacaine.
As previously discussed, the degree of sensory local anesthesia is measured by determining the time or latency, in seconds, before each rat withdraws its hindpaw from a hotplate set to a safe but uncomfortable temperature. Maximum sciatic nerve sensory blockade is defined as having a latency of about 12 seconds or higher.
Twenty-four rats each receive an injection of bupivacaine-loaded controlled release microspheres into the left or right side, co-administered with a dextran containing injection solution. The contralateral side receive either bupivacaine-loaded microspheres at the same dose, or unloaded microspheres co-administered with a dextran injection solution.
Sensory hot plate latency is measured from the time of the injections until the latency declined to under 2 seconds.

[4] = test system: rat sciatic nerve; assay: Rat sciatic nerve model, motor testing (4-point scale); format: in vivo; conditions: augmenting agent with bupivacaine-loaded microspheres vs contralateral side with bupivacaine-loaded microspheres without the agent
Method: as §1, §2
The degree of motor blockade is measured by scoring the appearance of the affected foot for the signs of loss of motor tone. The assessment is conducted as follows using a 4-point scale based on visual observation: (1) normal appearance, (2) intact dorsiflexion of foot with an impaired ability to splay toes when elevated by the tail, (3) toes and foot remained plantar flexed with no splaying ability, and (4) loss of dorsiflexion, flexion of toes, and impairment of gait.
Motor blockade is scored until the hind paws of motor blockades rats returned to a normal appearance.
Sensory and motor testing is conducted according to sections A and B, respectively, of EXAMPLE 10, above. Using the experimental protocol of section C of EXAMPLE 10, 24 rats are tested.
Sensory and motor testing is conducted according to sections A and B, respectively, of EXAMPLE 10, above.

[5] = Microdialysis of bupivacaine at i.m. injection site in quadriceps muscle; format: in vivo, Sprague-Dawley rat; conditions: 3 mg i.m., quadriceps femoris
Method: To determine whether bupivacaine is released from EDLA in two phases in-vivo, bupivacaine HCl and EDLA was injected into the quadriceps muscles of rats in which microdialysis catheters had been previously placed. Bupivacaine HCl was injected i.m. into the quadriceps femoris of a Sprague-Dawley rat around the area of a microdialysis catheter. […] This rapid escape is consistent with the very short duration of anesthetic action aqueous bupivacaine has in this model. Diffusion of bupivacaine, quantitated by HPLC, was from a single compartment that followed first order kinetics, k=0.25±0.04 min^−1. (SS=3.613). […] The first compartment was apparently identical to the mechanism of escape of soluble bupivacaine HCl, since the rate constant was essentially identical (k=0.22/minute). […] Calibration was determined in vivo by delivery of a 10 ug/ml solution of bupivacaine. […] Excellular bupivacaine was measured in the dialysate every 10 minutes. In vivo extracelluar concentration was determined from the dialysate concentration by factoring in the microdialysis probe recovery which had been previously determined. […]

[6] = test system: superficial radial nerve; assay: Local anesthesia to pin prick after injection around the superficial radial nerve in normal volunteers; format: in vivo, humans; conditions: n=6; EDLA 3 ml (37.5 mg total) or aqueous bupivacaine HCl 50 mg, single injection
Method: Finally, the two compartment release of bupivacaine from EDLA results in rapid onset and prolonged duration of local anesthesia in humans. Normal volunteers (n=6) received a single injection of 3 ml EDLA (37.5 mg total) or aqueous bupivacaine HCl (50 mg) around the superficial radial nerve. Onset of local anesthesia to pin prick over the anatomical snuff box was <3 hours with aqueous bupivacaine with duration of action 6-8 hours. Onset of local anesthesia with EDLA was <3 hours with duration of action 48-72 hours.

[7] = immediate release vasoconstrictor, at best; cited from earlier work

Row | Compound | Duration Anesthesia As Percent of Control ([1]; % Additive Conc. 0.05) | Duration Anesthesia As Percent of Control ([1]; % Additive Conc. 0.5) | also measured
1 | O=C1NC(=O)C(c2ccccc2)(c2ccccc2)N1 [5,5-diphenylhydantoin] | – | – | Duration Anesthesia As Percent of Control ([1]; % Additive Conc. 0.11): 152% of Control; Duration Anesthesia As Percent of Control ([1]; % Additive Conc. 1.09): 138% of Control
2 | C[C@]12CC[C@@H](O)C[C@@H]1CC[C@@H]1[C@@H]2C(=O)C[C@@]2(C)[C@H]1CC[C@]2(O)C(=O)CO [Allotetrahydrocortisone, allotetrahydrocortisone] | 100% of Control | 117% of Control | –
3 | CC(=O)[C@H]1CC[C@H]2[C@@H]3CC[C@H]4C[C@H](O)CC[C@]4(C)[C@H]3C(=O)C[C@]12C [Alphaxalone] | 169% of Control | 123% of Control | –
4 | Nc1ccncc1 [Aminopyridine (4-AP), Aminopyridine] | 77% of Control | – | Duration Anesthesia As Percent of Control ([1]; % Additive Conc. 0.11): 92% of Control; Duration Anesthesia As Percent of Control ([1]; % Additive Conc. 1.09): 131% of Control
5 | Cc1c(N(C)C)c(=O)n(-c2ccccc2)n1C [Aminopyrine] | 146% of Control | 62% of Control | –
6 | NC(=NCc1ccccc1)NC(=O)c1nc(Cl)c(N)nc1N [Benzamil] | 83% of Control | 154% of Control | –
7 | Clc1cccc(Cl)c1N=C1NCCN1 [Clonidine] | 122% of Control | 71% of Control | –
8 | COc1cc2c(c(OC)c1OC)-c1ccc(OC)c(=O)cc1[C@@H](NC(C)=O)CC2 [Colchicine] | – | – | Duration Anesthesia As Percent of Control ([1]; % Additive Conc. 0.01): 104% of Control; Duration Anesthesia As Percent of Control ([1]; % Additive Conc. 1.0): 277% of Control; Duration Anesthesia As Percent of Control ([1]; % Additive Conc. 10): toxic; response vs control in vivo at 0.1 % ([2]; % Additive Conc. 0.1, Placebo (in place of LAB)): 0%; response vs control in vivo at 10 % ([2]; % Additive Conc. 10, no LAB): 0%
9 | CN1C(=O)CN=C(c2ccccc2)c2cc(Cl)ccc21 [Diazepam] | 231% of Control | 203% of Control | –
10 | CC1=NS(=O)(=O)c2cc(Cl)ccc2N1 [Diazoxide] | 138% of Control | 109% of Control | –
11 | Nc1cc(N2CCCCC2)nc(N)[n+]1[O-] [Minoxidil] | 54% of Control | 218-265% of Control | –
12 | C[C@@H]1O[C@@H](O[C@H]2C[C@@H](O)[C@]3(CO)[C@H]4[C@H](O)C[C@]5(C)[C@@H](C6=CC(=O)OC6)CC[C@]5(O)[C@@H]4CC[C@]3(O)C2)[C@H](O)[C@H](O)[C@H]1O [Ouabain] | 154% of Control | 178% of Control | –
13 | CC(=O)O[C@H]1C(=O)[C@@]2(C)[C@H]([C@H](OC(=O)c3ccccc3)[C@]3(O)C[C@H](OC(=O)[C@H](O)[C@@H](NC(=O)c4ccccc4)c4ccccc4)C(C)=C1C3(C)C)[C@]1(OC(C)=O)CO[C@@H]1C[C@@H]2O [Taxol] | – | 82% of Control | Duration Anesthesia As Percent of Control ([1]; % Additive Conc. 0.11): 104% of Control; Duration Anesthesia As Percent of Control ([1]; % Additive Conc. 1.09): 108% of Control
14 | CC[N+](CC)(CC)CC [Tetraethylammonium] | 95% of Control | 123% of Control | –
15 | COc1ccc2c(c1)CC[C@@H]1[C@@H]2CC[C@]2(C)[C@@H](NCCCCCCN3C(=O)C=CC3=O)CC[C@@H]12 [U-73, 122, 1[6-[[17-beta-3-methoxyestra-1,3,5(10)-triene-17-yl]amino]hexl]1-H-pyrrole-2,5-dione] | 106% of Control | 115% of Control | –
16 | CCCC(CCC)C(=O)O [Valproic Acid] | 152% of Control | 138% of Control | –
17 | CC[C@]1(O)C[C@@H]2CN(CCc3c([nH]c4ccccc34)[C@@](C(=O)OC)(c3cc4c(cc3OC)N(C)[C@H]3[C@@](O)(C(=O)OC)[C@H](OC(C)=O)[C@]5(CC)C=CCN6CC[C@]43[C@@H]65)C2)C1 [Vinblastine] | 158% of Control | – | Duration Anesthesia As Percent of Control ([1]; % Additive Conc. 0.11): 37% of Control; Duration Anesthesia As Percent of Control ([1]; % Additive Conc. 1.09): 40% of Control
18 | CC(N)Cc1ccccc1 (centres unmarked) [amphetamine] | – | – | duration of sensory block [3]: significantly longer duration of sensory block; duration of motor block [4]: significantly increased duration of motor block
19 | CCCCN1CCCCC1C(=O)Nc1c(C)cccc1C (centres unmarked) [bupivacaine HCl] | – | – | k, first order escape of bupivacaine from i.m. injection site (single compartment) [5]: 0.25 ± 0.04 min⁻¹; duration of action of local anesthesia [6]: 6 to 8 h
20 | CN[C@@H](C)[C@H](O)c1ccccc1 [ephedrine] | – | – | duration of sensory block [3]: significantly longer duration of sensory block; duration of motor block [4]: significantly increased duration of motor block
21 | CNC[C@H](O)c1ccc(O)c(O)c1 [epinephrine] | – | – | duration of sensory block [3]: significantly longer duration of sensory block; duration of motor block [4]: significantly increased duration of motor block; prolongation of local anesthetic activity [7]: ≤ 1 h
22 | Dextran | – | – | duration of sensory block [3]: significantly longer duration of sensory block; sensory blockade ([3]; unloaded microspheres with dextran alone): no sensory blockade; duration of motor block [4]: significantly increased duration of motor block; Duration Anesthesia As Percent of Control ([1]; % Additive Conc. 3): 46-144% of Control
